The NIST ThermoML archive (doi:10.1016/j.jct.2016.01.019)

What was measured:
[1] = refractive index (Na D-line) (dimensionless); xn = mol fraction of the nth substance listed; settings: 94.64 kPa, Liquid, Standard Abbe refractometry
[2] = xn = mol fraction of the nth substance listed; settings: 94.64 kPa, Liquid, Vibrating tube method
[3] = refractive index (other wavelength) (dimensionless); settings: 94.64 kPa, Liquid, Standard Abbe refractometry
[4] = refractive index (Na D-line) (dimensionless); settings: 94.64 kPa, Liquid, Standard Abbe refractometry

CC(O)CO (stereo not given) [1,2-propanediol] + OCCCO
x1 = 1
Settings	mass density, [2] [kg/m3]	refractive index, [1]
293.15 K	1036.25	1.43219
298.15 K	1032.61	1.4303
303.15 K	1028.93	1.42921
308.15 K	1025.19	1.42746
313.15 K	1021.42	1.42566
318.15 K	1017.65	1.42386

CC(O)CO (stereo not given) [1,2-propanediol]
refractive index, [3]
Settings	Wavelength=404.7 nm	Wavelength=435.8 nm	Wavelength=486.1 nm	Wavelength=546.1 nm	Wavelength=587.6 nm	Wavelength=632.8 nm	Wavelength=644 nm	Wavelength=706.5 nm
293.15 K	1.445	1.44204	1.43722	1.43406	1.43227	1.43023	1.43008	1.42866
298.15 K	1.4429	1.43967	1.43566	1.43245	1.4305	1.429	1.4289	1.42701
303.15 K	1.44135	1.43785	1.43417	1.43096	1.42927	1.42774	1.42734	1.42571
308.15 K	1.43955	1.43622	1.43239	1.42919	1.42752	1.426	1.42565	1.42397
313.15 K	1.43771	1.43437	1.43055	1.42738	1.42572	1.4242	1.42386	1.42219
318.15 K	1.43584	1.43252	1.42875	1.42557	1.42392	1.42243	1.42208	1.42043

[4]
Settings	refractive index
293.15 K	1.43219
298.15 K	1.4303
303.15 K	1.42921
308.15 K	1.42746
313.15 K	1.42566
318.15 K	1.42386

OCCCO [propan-1,3-diol]
refractive index, [3]
Settings	Wavelength=404.7 nm	Wavelength=435.8 nm	Wavelength=486.1 nm	Wavelength=546.1 nm	Wavelength=587.6 nm	Wavelength=632.8 nm	Wavelength=644 nm	Wavelength=706.5 nm
293.15 K	1.45177	1.44842	1.4444	1.44112	1.43939	1.43781	1.43746	1.43577
298.15 K	1.45037	1.447	1.44301	1.43975	1.43802	1.43645	1.43611	1.43441
303.15 K	1.44902	1.44566	1.44168	1.43844	1.43671	1.43514	1.4348	1.43312
308.15 K	1.44755	1.44419	1.44027	1.43699	1.43529	1.43375	1.4334	1.4317
313.15 K	1.44615	1.4428	1.43888	1.43562	1.43392	1.43238	1.43203	1.43035
318.15 K	1.44474	1.44141	1.43754	1.43429	1.43261	1.43109	1.43075	1.42908

[4]
Settings	refractive index
293.15 K	1.43932
298.15 K	1.43796
303.15 K	1.43665
308.15 K	1.43523
313.15 K	1.43385
318.15 K	1.43255

OCCCO [propan-1,3-diol] + CC(O)CO
Settings	mass density, [2] [kg/m3]	refractive index, [1]
293.15 K, x2 = 0	1052.75	1.43932
293.15 K, x2 = 0.0985	1051.85	1.43907
293.15 K, x2 = 0.2023	1050.9	1.43879
293.15 K, x2 = 0.3015	1049.75	1.43838
293.15 K, x2 = 0.3961	1048.38	1.4378
293.15 K, x2 = 0.5009	1046.9	1.43695
293.15 K, x2 = 0.5961	1045.18	1.436
293.15 K, x2 = 0.6965	1043.35	1.43508
293.15 K, x2 = 0.7974	1041.33	1.4342
293.15 K, x2 = 0.8985	1038.71	1.4331
298.15 K, x2 = 0	1049.67	1.43796
298.15 K, x2 = 0.0985	1048.71	1.4376
298.15 K, x2 = 0.2023	1047.71	1.43721
298.15 K, x2 = 0.3015	1046.51	1.43671
298.15 K, x2 = 0.3961	1045.09	1.43612
298.15 K, x2 = 0.5009	1043.57	1.43533
298.15 K, x2 = 0.5961	1041.79	1.43455
298.15 K, x2 = 0.6965	1039.9	1.43364
298.15 K, x2 = 0.7974	1037.77	1.43275
298.15 K, x2 = 0.8985	1035.15	1.43161
303.15 K, x2 = 0	1046.55	1.43665
303.15 K, x2 = 0.0985	1045.54	1.43619
303.15 K, x2 = 0.2023	1044.49	1.43572
303.15 K, x2 = 0.3015	1043.23	1.43521
303.15 K, x2 = 0.3961	1041.76	1.43459
303.15 K, x2 = 0.5009	1040.18	1.4339
303.15 K, x2 = 0.5961	1038.34	1.43318
303.15 K, x2 = 0.6965	1036.39	1.4321
303.15 K, x2 = 0.7974	1034.25	1.4311
303.15 K, x2 = 0.8985	1031.52	1.43017
308.15 K, x2 = 0	1043.45	1.43523
308.15 K, x2 = 0.0985	1042.36	1.43478
308.15 K, x2 = 0.2023	1041.24	1.43424
308.15 K, x2 = 0.3015	1039.93	1.43377
308.15 K, x2 = 0.3961	1038.41	1.43324
308.15 K, x2 = 0.5009	1036.78	1.43241
308.15 K, x2 = 0.5961	1034.87	1.43161
308.15 K, x2 = 0.6965	1032.85	1.43076
308.15 K, x2 = 0.7974	1030.65	1.42967
308.15 K, x2 = 0.8985	1027.85	1.42858
313.15 K, x2 = 0	1040.32	1.43385
313.15 K, x2 = 0.0985	1039.16	1.4333
313.15 K, x2 = 0.2023	1037.97	1.43276
313.15 K, x2 = 0.3015	1036.61	1.43207
313.15 K, x2 = 0.3961	1035.02	1.43145
313.15 K, x2 = 0.5009	1033.34	1.43061
313.15 K, x2 = 0.5961	1031.36	1.43
313.15 K, x2 = 0.6965	1029.27	1.42906
313.15 K, x2 = 0.7974	1027.04	1.42818
313.15 K, x2 = 0.8985	1024.18	1.42699
318.15 K, x2 = 0	1037.18	1.43255
318.15 K, x2 = 0.0985	1035.96	1.43195
318.15 K, x2 = 0.2023	1034.7	1.43131
318.15 K, x2 = 0.3015	1033.26	1.43057
318.15 K, x2 = 0.3961	1031.62	1.42992
318.15 K, x2 = 0.5009	1029.89	1.42921
318.15 K, x2 = 0.5961	1027.83	1.42848
318.15 K, x2 = 0.6965	1025.68	1.42752
318.15 K, x2 = 0.7974	1023.38	1.42653
318.15 K, x2 = 0.8985	1020.43	1.42545
